25 compounds from patent US20210284639A1, “TYROSINE AMIDE DERIVATIVES AS RHO- KINASE INHIBITORS” (CHIESI FARMACEUTICI S.p.A., priority 2018, published 2021) can be followed below.

The structures appear in SMILES notation.

The target in one test is ROCK 1 (Rho kinase 1) (Homo sapiens, UniProt Q13464). Nature of the test: In vitro inhibitory activity assay (ADP-Glo), Rho kinase 1. In kind it is biochemical. As to conditions: Ki by Cheng-Prusoff from IC50; 10 μM ATP, 25° C. The protocol: (§1) In Vitro Inhibitory Activity Assay Description
(§2) The effectiveness of compounds of the present invention to inhibit Rho kinase activity can be determined in a 10 μl assay containing 40 mM Tris pH7.5, 20 mM MgCl2 0.1 mg/ml BSA, 50 μM DTT and 2.5 μM peptide substrate (Myelin Basic Protein) using an ADP-Glo kit (Promega). Compounds were dissolved in DMSO such that the final concentration of DMSO was 1% in the assay. All reactions/incubations are performed at 25° C. Compound (2 μl) and either Rho kinase 1 or 2 (4 μl) were mixed and incubated for 30 mins. Reactions were initiated by addition of ATP (4 μl) such that the final concentration of ATP in the assay was 10 μM. After a 1 hour incubation 10 μl of ADP-Glo Reagent was added and after a further 45 minute incubation 20 μl of Kinase Detection Buffer was added and the mixture incubated for a further 30 minutes. The luminescent signal was measured on a luminometer. […] Compounds were tested in dose-response format and the inhibition of kinase activity was calculated at each concentration of compound. To determine the IC50 (concentration of compound required to inhibit 50% of the enzyme activity) data were fit to a plot of % inhibition vs Log10 compound concentration using a sigmoidal fit with a variable slope and fixing the maximum to 100% and the minimum to 0%. To determine the Ki values the Cheng-Prusoff equation was utilized (Ki=IC50/(1+[S]/Km).
(ADP-Glo turns the ADP formed in a reaction into a luminescent signal.)

Another test addresses ROCK 2 (Rho kinase 2) (Homo sapiens, UniProt O75116). Nature of the test: In vitro inhibitory activity assay (ADP-Glo), Rho kinase 2. In kind it is biochemical. The settings on record: Ki by Cheng-Prusoff from IC50; 10 μM ATP, 25° C. The method, then: as §1, §2

ROCK 1 (Rho kinase 1), sequence (Q13464 whole entry): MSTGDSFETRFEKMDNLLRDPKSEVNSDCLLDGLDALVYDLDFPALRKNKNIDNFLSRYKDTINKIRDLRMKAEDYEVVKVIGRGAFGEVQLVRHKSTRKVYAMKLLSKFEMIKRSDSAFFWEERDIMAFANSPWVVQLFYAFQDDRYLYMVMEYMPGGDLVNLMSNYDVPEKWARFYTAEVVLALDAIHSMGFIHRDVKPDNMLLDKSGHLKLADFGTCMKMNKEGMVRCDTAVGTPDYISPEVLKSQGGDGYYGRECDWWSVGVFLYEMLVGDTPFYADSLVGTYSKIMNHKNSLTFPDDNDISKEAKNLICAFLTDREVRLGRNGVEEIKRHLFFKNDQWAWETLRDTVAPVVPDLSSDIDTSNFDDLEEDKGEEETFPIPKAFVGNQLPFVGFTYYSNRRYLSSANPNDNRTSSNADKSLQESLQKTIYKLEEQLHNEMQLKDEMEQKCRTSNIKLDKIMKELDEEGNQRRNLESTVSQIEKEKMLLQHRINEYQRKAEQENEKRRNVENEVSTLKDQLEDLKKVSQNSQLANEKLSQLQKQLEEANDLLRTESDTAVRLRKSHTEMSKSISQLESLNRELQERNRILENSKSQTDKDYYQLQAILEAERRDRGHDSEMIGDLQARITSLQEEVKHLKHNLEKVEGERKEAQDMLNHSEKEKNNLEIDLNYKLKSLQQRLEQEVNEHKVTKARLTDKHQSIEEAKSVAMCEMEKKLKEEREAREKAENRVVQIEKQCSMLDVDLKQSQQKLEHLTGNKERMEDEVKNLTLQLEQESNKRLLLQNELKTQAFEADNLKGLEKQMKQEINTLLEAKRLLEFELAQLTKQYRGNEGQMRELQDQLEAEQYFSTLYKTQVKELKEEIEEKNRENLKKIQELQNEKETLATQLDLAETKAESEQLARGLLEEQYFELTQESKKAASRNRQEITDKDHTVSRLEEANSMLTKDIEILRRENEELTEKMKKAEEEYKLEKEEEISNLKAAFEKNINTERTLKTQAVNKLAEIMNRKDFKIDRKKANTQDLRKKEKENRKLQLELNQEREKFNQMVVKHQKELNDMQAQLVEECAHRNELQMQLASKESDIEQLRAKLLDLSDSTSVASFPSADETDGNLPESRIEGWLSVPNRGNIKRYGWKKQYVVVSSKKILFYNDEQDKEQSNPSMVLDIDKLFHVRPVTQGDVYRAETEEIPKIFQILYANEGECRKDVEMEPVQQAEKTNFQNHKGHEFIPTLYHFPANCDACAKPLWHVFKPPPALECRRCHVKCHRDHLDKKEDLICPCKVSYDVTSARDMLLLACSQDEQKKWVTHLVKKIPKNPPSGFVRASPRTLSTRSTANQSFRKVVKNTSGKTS
ROCK 2 (Rho kinase 2), sequence (O75116 whole entry): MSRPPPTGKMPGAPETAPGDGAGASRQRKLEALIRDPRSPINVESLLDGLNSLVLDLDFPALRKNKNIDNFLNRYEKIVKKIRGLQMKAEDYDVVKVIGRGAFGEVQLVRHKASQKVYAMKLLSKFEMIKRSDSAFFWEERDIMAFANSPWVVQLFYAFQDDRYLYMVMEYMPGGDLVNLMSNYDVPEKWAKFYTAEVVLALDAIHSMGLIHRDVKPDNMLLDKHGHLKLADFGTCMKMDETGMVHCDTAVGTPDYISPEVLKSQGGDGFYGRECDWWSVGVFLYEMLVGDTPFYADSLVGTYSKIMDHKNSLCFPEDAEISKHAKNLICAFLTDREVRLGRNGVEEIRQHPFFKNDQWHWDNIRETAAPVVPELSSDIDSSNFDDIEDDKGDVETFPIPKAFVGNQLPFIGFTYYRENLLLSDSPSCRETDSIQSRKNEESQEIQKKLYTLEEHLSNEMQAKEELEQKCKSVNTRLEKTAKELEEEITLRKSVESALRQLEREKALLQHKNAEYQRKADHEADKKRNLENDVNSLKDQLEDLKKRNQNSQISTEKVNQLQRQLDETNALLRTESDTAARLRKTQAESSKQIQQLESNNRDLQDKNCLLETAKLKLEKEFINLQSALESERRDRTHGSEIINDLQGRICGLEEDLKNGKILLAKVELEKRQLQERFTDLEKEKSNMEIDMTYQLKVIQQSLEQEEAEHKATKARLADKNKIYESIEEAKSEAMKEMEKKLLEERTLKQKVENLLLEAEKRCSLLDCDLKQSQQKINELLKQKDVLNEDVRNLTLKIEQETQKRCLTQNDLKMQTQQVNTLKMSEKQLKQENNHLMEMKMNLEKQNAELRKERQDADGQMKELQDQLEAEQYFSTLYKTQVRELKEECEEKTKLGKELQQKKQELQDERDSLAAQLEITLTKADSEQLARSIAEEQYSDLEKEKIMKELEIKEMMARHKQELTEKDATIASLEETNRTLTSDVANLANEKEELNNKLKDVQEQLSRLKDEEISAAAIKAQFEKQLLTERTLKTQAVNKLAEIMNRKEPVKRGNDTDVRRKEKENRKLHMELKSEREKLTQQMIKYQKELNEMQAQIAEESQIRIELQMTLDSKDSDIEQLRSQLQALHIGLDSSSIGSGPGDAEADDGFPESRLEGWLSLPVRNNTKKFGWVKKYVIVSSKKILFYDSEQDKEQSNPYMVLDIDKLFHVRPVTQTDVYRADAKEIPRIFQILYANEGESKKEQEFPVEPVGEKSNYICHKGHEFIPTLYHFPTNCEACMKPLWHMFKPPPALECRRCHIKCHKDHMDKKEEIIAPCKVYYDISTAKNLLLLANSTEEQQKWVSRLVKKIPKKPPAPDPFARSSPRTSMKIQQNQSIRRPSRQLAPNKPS

As a reminder, the Ki is a measure of affinity in units of concentration, obtained from inhibition or displacement. Read a low Ki as tighter binding. On to `Cc1cccc(S(=O)(=O)C2CCN(C(=O)[C@@H](N)Cc3ccc(Oc4ccnc5[nH]cc(C)c45)c(F)c3)CC2)c1` [Example 31, (S)-2-Amino-3-(3-fluoro-4-((3-methyl-1H-pyrrolo[2,3-b]pyridin-4-yl)oxy)phenyl)-1-(4-(m-tolylsulfonyl)piperidin-1-yl)propan-1-one], for which the inhibitory constant (Ki) on ROCK 1 (Rho kinase 1) and at ROCK 2 (Rho kinase 2) was less than 3 nM in each case.
Take `Cc1c[nH]c2nccc(Oc3ccc(C[C@H](N)C(=O)NC4CCN(C5CCOC5)CC4)cc3F)c12` (stereo partly drawn) [Example 2, (2S)-2-Amino-3-(3-fluoro-4-((3-methyl-1H-pyrrolo[2,3-b]pyridin-4-yl)oxy)phenyl)-N-(1-(tetrahydrofuran-3-yl)piperidin-4-yl)propanamide]: the Ki on ROCK 1 (Rho kinase 1) and at ROCK 2 (Rho kinase 2) was less than 3 nM each time.
Turning to `Cc1c[nH]c2nccc(Oc3ccc(C[C@H](N)C(=O)N4CCC(NC5CC5)CC4)cc3F)c12` [Example 19, (S)-2-Amino-1-(4-(cyclopropylamino)piperidin-1-yl)-3-(3-fluoro-4-((3-methyl-1H-pyrrolo[2,3-b]pyridin-4-yl)oxy)phenyl)propan-1-one], the Ki at ROCK 1 (Rho kinase 1) and on ROCK 2 (Rho kinase 2) was less than 3 nM each time.
As to `Cc1c[nH]c2nccc(Oc3ccc(C[C@H](N)C(=O)N4CCc5cnccc5C4)cc3F)c12` [Example 25, (S)-2-Amino-1-(3,4-dihydro-2,6-naphthyridin-2(1H)-yl)-3-(3-fluoro-4-((3-methyl-1H-pyrrolo[2,3-b]pyridin-4-yl)oxy)phenyl)propan-1-one], the Ki on ROCK 1 (Rho kinase 1) and at ROCK 2 (Rho kinase 2) was less than 3 nM in each case.
As to `Cc1c[nH]c2nccc(Oc3ccc(C[C@H](N)C(=O)N4CCc5ccncc5C4)cc3F)c12` [Example 22, (S)-2-Amino-1-(3,4-dihydro-2,7-naphthyridin-2(1H)-yl)-3-(3-fluoro-4-((3-methyl-1H-pyrrolo[2,3-b]pyridin-4-yl)oxy)phenyl)propan-1-one], the Ki at ROCK 1 (Rho kinase 1) and on ROCK 2 (Rho kinase 2) was less than 3 nM in each case.
Regarding `Cc1c[nH]c2nccc(Oc3ccc(C[C@H](N)C(=O)NC4CCN(C5CC5)CC4)cc3F)c12` [Example 5, (S)-2-Amino-N-(1-cyclopropylpiperidin-4-yl)-3-(3-fluoro-4-((3-methyl-1H-pyrrolo[2,3-b]pyridin-4-yl)oxy)phenyl)propanamide], the Ki on ROCK 1 (Rho kinase 1) and at ROCK 2 (Rho kinase 2) was less than 3 nM each time.
In the case of `Cc1c[nH]c2nccc(Oc3ccc(C[C@H](N)C(=O)N4CCc5cncnc5C4)cc3F)c12` [Example 23, (S)-2-Amino-1-(5,8-dihydropyrido[3,4-d]pyrimidin-7(6H)-yl)-3-(3-fluoro-4-((3-methyl-1H-pyrrolo[2,3-b]pyridin-4-yl)oxy)phenyl)propan-1-one], the Ki on ROCK 1 (Rho kinase 1) and on ROCK 2 (Rho kinase 2) was less than 3 nM in each case.
For the compound `Cc1c[nH]c2nccc(Oc3ccc(C[C@H](N)C(N)=O)cc3F)c12` [Example 47, (S)-2-amino-3-(3-fluoro-4-((3-methyl-1H-pyrrolo[2,3-b]pyridin-4-yl)oxy)phenyl)propanamide], the Ki on ROCK 1 (Rho kinase 1) and at ROCK 2 (Rho kinase 2) was less than 3 nM in each case.
On to `CN1CCC(NC(=O)[C@@H](N)Cc2ccc(Oc3ccnc4[nH]cc(C5CC5)c34)c(F)c2)CC1` [Example 40, (S)-2-Amino-3-(4-((3-cyclopropyl-1H-pyrrolo[2,3-b]pyridin-4-yl)oxy)-3-fluorophenyl)-N-(1-methylpiperidin-4-yl)propanamide], for which the Ki at ROCK 1 (Rho kinase 1) and at ROCK 2 (Rho kinase 2) was less than 3 nM each time.
Take `Cc1c[nH]c2ncnc(Oc3ccc(C[C@H](N)C(=O)NC4CCN(C5CC5)CC4)cc3F)c12` [Example 39, (S)-2-Amino-N-(1-cyclopropylpiperidin-4-yl)-3-(3-fluoro-4-((5-methyl-7H-pyrrolo[2,3-d]pyrimidin-4-yl)oxy)phenyl)propanamide]: the Ki at ROCK 1 (Rho kinase 1) and on ROCK 2 (Rho kinase 2) was less than 3 nM throughout.
For `Cc1c[nH]c2nccc(Oc3ccc(C[C@H](N)C(=O)NC4(C(=O)NCCO)CCCCC4)cc3F)c12` [Example 44, (S)-1-(2-amino-3-(3-fluoro-4-((3-methyl-1H-pyrrolo[2,3-b]pyridin-4-yl)oxy)phenyl)propanamido)-N-(2-hydroxyethyl)cyclohexanecarboxamide], the Ki on ROCK 1 (Rho kinase 1) and on ROCK 2 (Rho kinase 2) was less than 3 nM each time.
In the case of `Cc1c[nH]c2nccc(Oc3ccc(C[C@H](N)C(=O)N[C@@H]4CCN(C)C4)cc3F)c12` [Example 10, (S)-2-Amino-3-(3-fluoro-4-((3-methyl-1H-pyrrolo[2,3-b]pyridin-4-yl)oxy)phenyl)-N-((R)-1-methylpyrrolidin-3-yl)propanamide], the Ki on ROCK 1 (Rho kinase 1) and at ROCK 2 (Rho kinase 2) was less than 3 nM each time.
Consider `Cc1c[nH]c2nccc(Oc3ccc(C[C@H](N)C(=O)NC4(C(N)=O)CCN(C5CC5)CC4)cc3F)c12` [Example 21, (S)-4-(2-Amino-3-(3-fluoro-4-((3-methyl-1H-pyrrolo[2,3-b]pyridin-4-yl)oxy)phenyl)propanamido)-1-cyclopropylpiperidine-4-carboxamide], for which the Ki at ROCK 1 (Rho kinase 1) and on ROCK 2 (Rho kinase 2) was less than 3 nM throughout.
As for `CNC(=O)[C@@H](N)Cc1ccc(Oc2ccnc3[nH]cc(C)c23)c(F)c1` [Example 46, (S)-2-amino-3-(3-fluoro-4-((3-methyl-1H-pyrrolo[2,3-b]pyridin-4-yl)oxy)phenyl)-N-methylpropanamide], the Ki on ROCK 1 (Rho kinase 1) and at ROCK 2 (Rho kinase 2) was less than 3 nM in each case.
Take `Cc1c[nH]c2nccc(Oc3ccc(C[C@H](N)C(=O)NC4(C(N)=O)CCC4)cc3F)c12` [Example 27, (S)-1-(2-Amino-3-(3-fluoro-4-((3-methyl-1H-pyrrolo[2,3-b]pyridin-4-yl)oxy)phenyl)propanamido)cyclobutane-1-carboxamide]: the Ki at ROCK 1 (Rho kinase 1) and at ROCK 2 (Rho kinase 2) was less than 3 nM in each case.
With `COCCN1CCC(NC(=O)[C@@H](N)Cc2ccc(Oc3ccnc4[nH]cc(C)c34)c(F)c2)CC1` [Example 14, (S)-2-Amino-3-(3-fluoro-4-((3-methyl-1H-pyrrolo[2,3-b]pyridin-4-yl)oxy)phenyl)-N-(1-(2-methoxyethyl)piperidin-4-yl)propanamide], the Ki on ROCK 1 (Rho kinase 1) and on ROCK 2 (Rho kinase 2) was less than 3 nM each time.
As to `Cc1c[nH]c2nccc(Oc3ccc(C[C@H](N)C(=O)N(C)C)cc3F)c12` [Example 45, (S)-2-amino-3-(3-fluoro-4-((3-methyl-1H-pyrrolo[2,3-b]pyridin-4-yl)oxy)phenyl)-N,N-dimethylpropanamide], the results for the inhibition constant (Ki) at ROCK 1 (Rho kinase 1) and on ROCK 2 (Rho kinase 2) were 3 to 30 nM and less than 3 nM, respectively.
Taken in the same sequence, the figures for `Cc1c[nH]c2ncnc(Oc3c(F)cc(C[C@H](N)C(=O)N4CCC(S(=O)(=O)c5ccccc5)CC4)cc3F)c12` [Example 41, (S)-2-Amino-3-(3,5-difluoro-4-((5-methyl-7H-pyrrolo[2,3-d]pyrimidin-4-yl)oxy)phenyl)-1-(4-(phenylsulfonyl)piperidin-1-yl)propan-1-one] were less than 3 nM and less than 3 nM.
In the same order, the values of `Cc1c[nH]c2nccc(Oc3ccc(C[C@H](N)C(=O)NC4(CO)CCC4)cc3F)c12` [Example 30, (S)-2-amino-3-(3-fluoro-4-((3-methyl-1H-pyrrolo[2,3-b]pyridin-4-yl)oxy)phenyl)-N-(1-(hydroxymethyl)cyclobutyl)propanamide] are less than 3 nM and less than 3 nM.
In the same order, the values of `Cc1c[nH]c2nccc(Oc3ccc(C[C@H](N)C(=O)NC4CCN(C5COC5)CC4)cc3F)c12` [Example 3, (S)-2-Amino-3-(3-fluoro-4-((3-methyl-1H-pyrrolo[2,3-b]pyridin-4-yl)oxy)phenyl)-N-(1-(oxetan-3-yl)piperidin-4-yl)propanamide] are less than 3 nM and less than 3 nM.
As to `Cc1c[nH]c2nccc(Oc3ccc(C[C@H](N)C(=O)N4CCN(C)CC45CC5)cc3F)c12` [Example 11, (S)-2-Amino-3-(3-fluoro-4-((3-methyl-1H-pyrrolo[2,3-b]pyridin-4-yl)oxy)phenyl)-1-(7-methyl-4,7-diazaspiro[2.5]octan-4-yl)propan-1-one], the Ki at ROCK 1 (Rho kinase 1) was 3 to 30 nM; on ROCK 2 (Rho kinase 2), less than 3 nM.
Taken in the same sequence, the figures for `Cc1c[nH]c2ncnc(Oc3ccc(C[C@H](N)C(=O)NC4(C(N)=O)CCCCC4)cc3F)c12` [Example 32, (S)-1-(2-amino-3-(3-fluoro-4-((5-methyl-7H-pyrrolo[2,3-d]pyrimidin-4-yl)oxy)phenyl)propanamido)cyclohexanecarboxamide] were 3 to 30 nM and less than 3 nM.
Taken in the same sequence, the figures for `Cc1c[nH]c2nccc(Oc3ccc(C[C@H](N)C(=O)NC4CCN(C)CC4(C)C)cc3F)c12` (single isomer, unassigned) [Example 8a] were less than 3 nM and less than 3 nM.
Turning to `CNC(=O)C1(NC(=O)[C@@H](N)Cc2ccc(Oc3ccnc4[nH]cc(C)c34)c(F)c2)CCCC1` [Example 28, (S)-1-(2-amino-3-(3-fluoro-4-((3-methyl-1H-pyrrolo[2,3-b]pyridin-4-yl)oxy)phenyl)propanamido)-N-methylcyclopentane-1-carboxamide], the Ki on ROCK 1 (Rho kinase 1) and on ROCK 2 (Rho kinase 2) was less than 3 nM in each case.
With `CCN1CCC(NC(=O)[C@@H](N)Cc2ccc(Oc3ccnc4[nH]cc(C)c34)c(F)c2)CC1` [Example 7, (S)-2-Amino-N-(1-ethylpiperidin-4-yl)-3-(3-fluoro-4-((3-methyl-1H-pyrrolo[2,3-b]pyridin-4-yl)oxy)phenyl)propanamide], the Ki on ROCK 1 (Rho kinase 1) and at ROCK 2 (Rho kinase 2) was less than 3 nM each time.
